Measurements taken from US9301529B2, “Polysubstituted pyridyl pyrazolecarboxamide and preparation method and use thereof” (ZHAOQING ZHENGE BIOLOGICAL TECHNOLOGY CO., LTD, priority 2014, dated 2016).

Experiments:
Ostrinia furnacalis = assay: Determination of activity against Ostrinia furnacalis, leaf dipping method; format: in vivo; settings: for insecticidal activity (mortality): leaf dipping, Brassica oleracea leaf, 72 hours
Description: Determination of Activity Against Ostrinia furnacalis
Leaf dipping method was adopted, a leaf of Brassica oleracea was clamped by a tweezer, and dipped in insecticide solution having a certain concentration for 3 to 5 seconds, the excessive solution was threw off, one leaf at each time, and three leaves for each sample. The leaves were placed onto a treatment paper according to the sequence of sample marking and air-dried naturally, then put into a marked straight tube of 10 cm length, and 30 Ostrinia furnacalis larvae being […] were place in, the tube opening was covered by a gauze, and placed in a standard treatment chamber, the result was checked and the mortality was calculated at 72 hours.
(§1) Some of the compounds in Example 1 were used to conduct the test, and a control compound was selected to conduct an indoor insecticidal activity data (%, concentration unit: ppm) determination test under the same condition, the results of the test was shown in Table 2.

Helicoverpa armigera = assay: Determination of activity against Helicoverpa armigera, leaf dipping method (IRAC); format: in vivo; settings: for insecticidal activity (mortality): leaf dipping, Brassica oleracea leaf, 72 hour
Description: Determination of Activity Against Helicoverpa armigera
Leaf dipping method (proposed by Insecticide Resistance Action Committee, IRAC) was adopted: a leaf of Brassica oleracea was clamped by a tweezer and dipped into an insecticide solution having a certain concentration to be tested for 3 to 5 seconds, the excessive solution was threw off, one leaf at each time, three leaves for each sample. The leaves were placed onto a treatment paper according to sequence of sample marking and air-dried naturally, then put into a marked straight tube of 10 cm length, […] in, the tube opening was covered by a gauze, and placed into a standard treatment chamber, the result was checked and the mortality was calculated at 72 hour.
as §1

[1] = Ostrinia furnacalis, in Brassica oleracea, foliar, 72 h, read-out: insecticidal activity (mortality)
[2] = Helicoverpa armigera, in Brassica oleracea, foliar, 72 h, read-out: insecticidal activity (mortality)

Q: Which mortality at 0.016 ppm (Ostrinia furnacalis; [1]) does the source give for `CNC(=O)c1cc(Cl)cc(C)c1NC(=O)c1cc(Br)nn1-c1ncccc1Cl` [KC] here?
A: 0%

Q: What about the mortality at 0.031 ppm (Ostrinia furnacalis; [1]) of the same molecule?
A: 30%

Q: And the mortality at 0.0625 ppm (Ostrinia furnacalis; [1])?
A: 55%

Q: And the mortality at 0.125 ppm (Ostrinia furnacalis; [1])?
A: 75%

Q: What about the mortality at 0.25 ppm (Ostrinia furnacalis; [1]) of the same molecule?
A: 100%

Q: What about the mortality at 0.5 ppm (Ostrinia furnacalis; [1]) of the same molecule?
A: 100%

Q: And the mortality at 0.016 ppm (Helicoverpa armigera; [2])?
A: 0%

Q: What about the mortality at 0.031 ppm (Helicoverpa armigera; [2]) of the same molecule?
A: 0%

Q: What about the mortality at 0.0625 ppm (Helicoverpa armigera; [2]) of the same molecule?
A: 30%

Q: What about the mortality at 0.125 ppm (Helicoverpa armigera; [2]) of the same molecule?
A: 55%

Q: What about the mortality at 0.25 ppm (Helicoverpa armigera; [2]) of the same molecule?
A: 70%

Q: And the mortality at 0.5 ppm (Helicoverpa armigera; [2])?
A: 85%

Q: `CC(C)(C)NC(=O)c1cc(Cl)cc(Cl)c1NC(=O)c1cc(Br)nn1-c1ncccc1Cl` [Compound I-24, 1-(3-chloropyridine-2-yl)-3-bromo-N-(2,4-dichloro-6-tert-butylaminocarbonyl)phenyl-1H-pyrazole-5-formamide] was tested. Which “insecticidal activity (mortality)” value (Ostrinia furnacalis; 0.031 ppm) did it give?
A: 100%

Q: And the “insecticidal activity (mortality)” value (Ostrinia furnacalis; 0.0625 ppm)?
A: 100%

Q: And the “insecticidal activity (mortality)” value (Ostrinia furnacalis; 0.125 ppm)?
A: 100%

Q: And the “insecticidal activity (mortality)” value (Ostrinia furnacalis; 0.25 ppm)?
A: 100%

Q: What about the “insecticidal activity (mortality)” value (Ostrinia furnacalis; 0.5 ppm) of the same molecule?
A: 100%

Q: What about the “insecticidal activity (mortality)” value (Helicoverpa armigera; 0.016 ppm) of the same molecule?
A: 60%

Q: And the “insecticidal activity (mortality)” value (Helicoverpa armigera; 0.031 ppm)?
A: 80%

Q: And the “insecticidal activity (mortality)” value (Helicoverpa armigera; 0.0625 ppm)?
A: 100%

Q: And the “insecticidal activity (mortality)” value (Helicoverpa armigera; 0.125 ppm)?
A: 100%

Q: What about the “insecticidal activity (mortality)” value (Helicoverpa armigera; 0.25 ppm) of the same molecule?
A: 100%

Q: And the “insecticidal activity (mortality)” value (Helicoverpa armigera; 0.5 ppm)?
A: 100%
